Data from the supplement of paper PMC10883282.
± gives the standard deviation of the averaged measurements.

Test system: SK-ES-1
Experiment: relative viability vs DMSO control (72 h) (fraction); higher = more viable cells
In short: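 Relative viability was measured with ATPLite and expressed as percent growth, averaged across up to triplicate wells. Sarcoma cell lines had been seeded in 384-well plates to reach 80–90% confluence, dosed after 24 h, and incubated 72 h at 37 °C, 5% CO2. All data were rescaled on a scale where 1 is full and 0 is none.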

Compound	relative viability (0.00017 µM)	relative viability (0.00051 µM)	relative viability (0.00152 µM)	relative viability (0.00457 µM)	relative viability (0.01372 µM)	relative viability (0.04115 µM)	relative viability (0.1235 µM)	relative viability (0.3704 µM)	relative viability (1.111 µM)	relative viability (3.333 µM)	relative viability (10 µM)
C=CC(=O)Nc1cccc(Oc2nc(Nc3ccc(N4CCN(C)CC4)cc3)nc3ccsc23)c1 [Olmutinib]	0.979 ± 0.049	1.029 ± 0.0089	0.999 ± 0.047	1.03 ± 0.028	1.03 ± 0.036	1.018 ± 0.0064	1.05 ± 0.022	1.05 ± 0.051	0.996 ± 0.059	0.921 ± 0.011	0.339 ± 0.041
COc1cc2c(Oc3ccc4[nH]c(C)cc4c3F)ncnc2cc1OCCCN1CCCC1 [Cediranib]	1.04 ± 0.014	1.07 ± 0.058	1.1 ± 0.02	1.06 ± 0.033	1.06 ± 0.066	1.07 ± 0.015	1.062 ± 0.0014	1.07 ± 0.064	0.877 ± 0.033	0.763 ± 0.019	0.133 ± 0.049
Cc1cnc(Nc2ccc(OCCN3CCCC3)cc2)nc1Nc1cccc(S(=O)(=O)NC(C)(C)C)c1 [Fedratinib]	0.99 ± 0.063	1.03 ± 0.045	1.047 ± 0.01	1.06 ± 0.028	1.04 ± 0.016	1.03 ± 0.023	0.859 ± 0.067	0.489 ± 0.014	0.123 ± 0.01	0.0173 ± 0.002	0.0056 ± 0.00035
CCCS(=O)(=O)Nc1ccc(F)c(C(=O)c2c[nH]c3ncc(-c4ccc(Cl)cc4)cc23)c1F [Vemurafenib]	1.02 ± 0.061	1.06 ± 0.043	1.08 ± 0.016	1.09 ± 0.022	1.06 ± 0.043	1.03 ± 0.045	1.05 ± 0.025	1.1 ± 0.011	1.04 ± 0.06	0.891 ± 0.078	0.534 ± 0.16
Cn1cnc2c(F)c(Nc3ccc(Br)cc3F)c(C(=O)NOCCO)cc21 [Binimetinib]	1.03 ± 0.019	1.02 ± 0.018	0.988 ± 0.021	0.984 ± 0.058	0.95 ± 0.028	0.957 ± 0.045	0.983 ± 0.036	0.923 ± 0.015	0.945 ± 0.05	0.893 ± 0.027	0.861 ± 0.077
COc1c(OCCCN2CCOCC2)ccc2c1N=C(NC(=O)c1cnc(N)nc1)N1CCN=C21 [Copanlisib]	1.02 ± 0.022	1.07 ± 0.036	1.01 ± 0.021	0.808 ± 0.019	0.629 ± 0.015	0.4325 ± 0.0023	0.3049 ± 0.0025	0.214 ± 0.016	0.15 ± 0.0035	0.0822 ± 0.0034	0.0455 ± 0.0028
COc1cc2nccc(Oc3ccc(NC(=O)Nc4cc(C)on4)c(Cl)c3)c2cc1OC [Tivozanib]	1.02 ± 0.058	1.02 ± 0.019	1.03 ± 0.065	1.04 ± 0.028	1.11 ± 0.021	1.07 ± 0.021	1.08 ± 0.06	1.08 ± 0.023	1.06 ± 0.041	0.973 ± 0.035	0.518 ± 0.018
CC[C@H](Nc1ncnc2[nH]cnc12)c1nc2cccc(F)c2c(=O)n1-c1ccccc1 [Idelalisib]	1.06 ± 0.041	1.06 ± 0.06	1.03 ± 0.024	1.08 ± 0.018	1.08 ± 0.015	1.08 ± 0.051	1.04 ± 0.042	1.02 ± 0.021	1.01 ± 0.056	0.905 ± 0.052	0.827 ± 0.01
Cc1cc(C)c(/C=C2\C(=O)Nc3ccccc32)[nH]1 [Semaxanib]	0.972 ± 0.06	1.01 ± 0.056	0.954 ± 0.028	1 ± 0.056	0.967 ± 0.055	0.999 ± 0.018	1 ± 0.027	0.986 ± 0.09	0.925 ± 0.042	0.934 ± 0.052	0.765 ± 0.068
Cc1ccc(F)c(NC(=O)Nc2ccc(-c3cccc4[nH]nc(N)c34)cc2)c1 [Linifanib]	1.07 ± 0.098	1.07 ± 0.044	1.08 ± 0.043	1.11 ± 0.025	1.09 ± 0.052	1.04 ± 0.028	1.04 ± 0.038	1.05 ± 0.039	1.01 ± 0.032	0.879 ± 0.17	1.03 ± 0.034
COCc1c(-c2cc3cc(C)cc(OC)c3s2)c2c(N)ncnn2c1CN1CCNC(=O)C1 [Rogaratinib]	1.04 ± 0.043	1.03 ± 0.044	1.02 ± 0.035	1.03 ± 0.049	1.07 ± 0.045	1.05 ± 0.065	0.982 ± 0.062	0.97 ± 0.011	0.848 ± 0.075	0.659 ± 0.027	0.463 ± 0.03
N#CC[C@H](C1CCCC1)n1cc(-c2ncnc3[nH]ccc23)cn1 [Ruxolitinib]	0.926 ± 0.028	0.974 ± 0.027	0.96 ± 0.038	0.9617 ± 0.0031	0.942 ± 0.039	0.95 ± 0.049	0.933 ± 0.024	0.959 ± 0.044	0.932 ± 0.025	0.897 ± 0.05	0.812 ± 0.04
CCN1CCN(Cc2ccc(Nc3ncc(F)c(-c4cc(F)c5nc(C)n(C(C)C)c5c4)n3)nc2)CC1 [Abemaciclib]	1.03 ± 0.032	1.04 ± 0.027	0.995 ± 0.031	1 ± 0.052	0.922 ± 0.055	0.728 ± 0.018	0.481 ± 0.035	0.413 ± 0.012	0.38 ± 0.0066	0.346 ± 0.01	0.00807 ± 0.00042
CNC(=O)c1cc(Oc2ccc(NC(=O)Nc3ccc(Cl)c(C(F)(F)F)c3)c(F)c2)ccn1 [Regorafenib]	1.11 ± 0.054	1.03 ± 0.027	1.08 ± 0.032	1.04 ± 0.017	1.02 ± 0.085	1.03 ± 0.014	1.09 ± 0.036	1.05 ± 0.047	0.952 ± 0.05	0.836 ± 0.017	0.523 ± 0.021
Nc1cc(C(F)(F)F)c(-c2cc(N3CCOCC3)nc(N3CCOCC3)n2)cn1 [Buparlisib]	1.03 ± 0.025	1 ± 0.052	1.02 ± 0.037	1.04 ± 0.035	1.03 ± 0.029	1.04 ± 0.019	0.93 ± 0.033	0.749 ± 0.035	0.157 ± 0.014	0.041 ± 0.00093	0.0484 ± 0.0029
CC(C)NC(=O)C1CCC(n2c(NC(=O)c3ccc(F)cc3)nc3ccc(CN4CCC(C(C)(C)O)CC4)cc32)CC1 (stereo not drawn) [Belizatinib]	1.03 ± 0.038	1.02 ± 0.041	1.06 ± 0.031	1.05 ± 0.029	1.05 ± 0.039	1.08 ± 0.032	0.943 ± 0.065	0.633 ± 0.031	0.311 ± 0.013	0.208 ± 0.01	0.0946 ± 0.0023
CC1(C)CNc2cc(NC(=O)c3cccnc3NCc3ccncc3)ccc21 [Motesanib]	0.942 ± 0.053	0.899 ± 0.059	0.952 ± 0.013	0.891 ± 0.017	0.9075 ± 0.0058	0.938 ± 0.056	0.974 ± 0.051	0.913 ± 0.043	0.954 ± 0.044	0.924 ± 0.053	0.753 ± 0.038
CC(=O)Nc1cccc(-n2c(=O)n(C3CC3)c(=O)c3c(Nc4ccc(I)cc4F)n(C)c(=O)c(C)c32)c1 [Trametinib]	1.03 ± 0.035	1.04 ± 0.025	0.987 ± 0.031	0.99 ± 0.028	0.937 ± 0.077	0.984 ± 0.063	0.976 ± 0.031	0.969 ± 0.048	0.962 ± 0.05	0.948 ± 0.059	0.923 ± 0.017
